From patent US9624182B2, “Compounds as lysophosphatidic acid receptor antagonists” (Amira Pharmaceuticals, Inc., priority 2009, dated 2017)
pIC50: −log10 of the molar value.

target: T1, human LPA1 (Homo sapiens, UniProt Q92633); assay: LPA1 calcium flux assay; type: cell-based; settings: CHO cells expressing human LPA1, stimulated with 10 nM LPA; read-out: HLPA1 Ca Flux IC50
T1 construct: the full-length cDNA for human LPA1 was obtained by PCR of the reverse transcription reaction; expressed in transfected cells
Method in brief: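 CHO cells stably expressing cloned human LPA1, serum-starved overnight, loaded with Calcium 4 dye 1 h at 37 °C in HBSS/20 mM Hepes with 0.3% fatty-acid-free HSA. Compounds preincubated 30 min at room temperature, then cells stimulated with 10 nM LPA; intracellular Ca2+ read by fluorescence. IC50 from titration curves.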

T1 sequence (Q92633 whole entry): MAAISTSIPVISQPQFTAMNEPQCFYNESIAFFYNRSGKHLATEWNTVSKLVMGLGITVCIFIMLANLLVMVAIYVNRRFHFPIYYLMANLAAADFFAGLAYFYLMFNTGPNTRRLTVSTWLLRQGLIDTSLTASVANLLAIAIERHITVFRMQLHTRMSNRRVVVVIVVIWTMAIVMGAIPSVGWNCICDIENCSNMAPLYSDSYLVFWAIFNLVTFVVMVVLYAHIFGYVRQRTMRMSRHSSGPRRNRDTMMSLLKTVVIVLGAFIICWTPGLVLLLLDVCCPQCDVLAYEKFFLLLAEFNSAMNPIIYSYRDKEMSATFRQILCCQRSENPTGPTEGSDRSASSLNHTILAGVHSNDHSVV

| pIC50 | SMILES |
| --- | --- |
| > 6.52 | Cc1noc(-c2ccc(-c3ccc(C4(CC(=O)O)CC4)cc3)cc2)c1NC(C)CCc1cccc(F)c1 (centres unmarked) [Compound 1-185, [1-(4′-{4-[3-(3-Fluoro-phenyl)-1-methyl-propylamino]-3-methyl-isoxazol-5-yl}-biphenyl-4-yl)-cyclopropyl]-acetic acid] |
| > 6.52 | Cc1noc(-c2ccc(-c3ccc(CCC(=O)O)cc3)cc2)c1CSCCc1ccccc1 [Compound 1-191, 3-[4′-(3-Methyl-4-phenethylsulfanylmethyl-isoxazol-5-yl)-biphenyl-4-yl]-propionic acid] |
| > 6.52 | Cc1noc(-c2ccc(-c3ccc(CCC(=O)O)cc3)cc2)c1NC(C)CCc1cccc(C(F)(F)F)c1 (centres unmarked) [Compound 1-192, 3-(4′-{3-Methyl-4-[1-methyl-3-(3-trifluoromethyl-phenyl)-propylamino]-isoxazol-5-yl}-biphenyl-4-yl)-propionic acid] |
| > 6.52 | Cc1noc(-c2ccc(-c3ccc(CCC(=O)O)cc3)cc2)c1NC(C)CCc1cccc(Cl)c1 (centres unmarked) [Compound 1-193, 3-(4′-{4-[3-(3-Chloro-phenyl)-1-methyl-propylamino]-3-methyl-isoxazol-5-yl}-biphenyl-4-yl)-propionic acid] |
| > 6.52 | Cc1noc(-c2ccc(-c3ccc(CCC(=O)O)cc3)cc2)c1C(O)CCCc1ccccc1 (centres unmarked) [Compound 1-197, 3-{4′-[4-(1-Hydroxy-4-phenyl-butyl)-3-methyl-isoxazol-5-yl]-biphenyl-4-yl}-propionic acid] |
| > 6.52 | Cc1noc(-c2ccc(-c3cccc(CCC(=O)O)c3)cc2)c1C(O)CCCc1ccccc1 (centres unmarked) [Compound 1-200, 3-{4′-[4-(1-Hydroxy-4-phenyl-butyl)-3-methyl-isoxazol-5-yl]-biphenyl-3-yl}-propionic acid] |
| 4.30 to 6.00 | Cc1noc(-c2ccc(-c3ccccc3CCC(=O)O)cc2)c1C(O)CCCc1ccccc1 (centres unmarked) [Compound 1-201, 3-{4′-[4-(1-Hydroxy-4-phenyl-butyl)-3-methyl-isoxazol-5-yl]-biphenyl-2-yl}-propionic acid] |
| > 6.52 | CC(C)=CCCC(C)Nc1c(C)noc1-c1ccc(-c2ccc(C3(CC(=O)O)CC3)cc2)cc1 (centres unmarked) [Compound 1-204, (1-{4′-[4-(1,5-Dimethyl-hex-4-enylamino)-3-methyl-isoxazol-5-yl]-biphenyl-4-yl}-cyclopropyl)-acetic acid] |
| > 6.52 | Cc1noc(-c2ccc(-c3ccc(C4(CC(=O)O)CC4)cc3)cc2)c1C(O)CCCCc1ccccc1 (centres unmarked) [Compound 1-207, (1-{4′-[4-(1-Hydroxy-5-phenyl-pentyl)-3-methyl-isoxazol-5-yl]-biphenyl-4-yl}-cyclopropyl)-acetic acid] |
| 6.00 to 6.52 | COc1ccc(CCC(C)Nc2c(C)noc2-c2ccc(-c3ccc(C4(CC(=O)O)CC4)cc3)cc2)cc1 (centres unmarked) [Compound 1-211, [1-(4′-{4-[3-(4-Methoxy-phenyl)-1-methyl-propylamino]-3-methyl-isoxazol-5-yl}-biphenyl-4-yl)-cyclopropyl]-acetic acid] |
| 6.00 to 6.52 | Cc1noc(-c2ccc(-c3ccc(C4(CC(=O)O)CC4)cc3)cc2)c1NC(CCc1ccccc1)c1ccccc1 (centres unmarked) [Compound 1-213, (1-{4′-[4-(1,3-Diphenyl-propylamino)-3-methyl-isoxazol-5-yl]-biphenyl-4-yl}-cyclopropyl)-acetic acid] |
| 6.00 to 6.52 | Cc1noc(-c2ccc(-c3ccc(C4(C(=O)O)CC4)cc3)cc2)c1NC(CCc1ccccc1)c1ccccc1 (centres unmarked) [Compound 1-214, 1-{4′-[4-(1,3-Diphenyl-propylamino)-3-methyl-isoxazol-5-yl]-biphenyl-4-yl}-cyclopropanecarboxylic acid] |
| > 6.52 | Cc1noc(-c2ccc(-c3ccc(C4(CC(=O)O)CC4)cc3)cc2)c1NC(C)CCc1ccc(Cl)cc1 (centres unmarked) [Compound 1-218, [1-(4′-{4-[3-(4-Chloro-phenyl)-1-methyl-propylamino]-3-methyl-isoxazol-5-yl}-biphenyl-4-yl)-cyclopropyl]-acetic acid] |
| > 6.52 | Cc1noc(-c2ccc(-c3ccc(C4(CC(=O)O)CC4)cc3)cc2)c1NC(C)CCc1c(F)cccc1Cl (centres unmarked) [Compound 1-219, [1-(4′-{4-[3-(2-Chloro-6-fluoro-phenyl)-1-methyl-propylamino]-3-methyl-isoxazol-5-yl}-biphenyl-4-yl)-cyclopropyl]-acetic acid] |
| > 6.52 | Cc1noc(-c2ccc(-c3ccc(C4(CC(=O)O)CC4)cc3)cc2)c1NC(C)CCc1ccccc1Cl (centres unmarked) [Compound 1-222, [1-(4′-{4-[3-(2-Chloro-phenyl)-1-methyl-propylamino]-3-methyl-isoxazol-5-yl}-biphenyl-4-yl)-cyclopropyl]-acetic acid] |
| 6.00 to 6.52 | C=CCCC(C)Nc1c(C)noc1-c1ccc(-c2ccc(C3(CC(=O)O)CC3)cc2)cc1 (centres unmarked) [Compound 1-226, (1-{4′-[3-Methyl-4-(1-methyl-pent-4-enylamino)-isoxazol-5-yl]-biphenyl-4-yl}-cyclopropyl)-acetic acid] |
| > 6.52 | C=CCCC(C)Nc1c(C)noc1-c1ccc(-c2ccc(C3(C(=O)O)CC3)cc2)cc1 (centres unmarked) [Compound 1-227, 1-{4′-[3-Methyl-4-(1-methyl-pent-4-enylamino)-isoxazol-5-yl]-biphenyl-4-yl}-cyclopropanecarboxylic acid] |
| 4.30 to 6.00 | C=CCCC(C)Nc1c(C)noc1-c1ccc(-c2ccccc2CC(=O)O)cc1 (centres unmarked) [Compound 1-228, {4′-[3-Methyl-4-(1-methyl-pent-4-enylamino)-isoxazol-5-yl]-biphenyl-2-yl}-acetic acid] |

Second part, the compound before the results:

| SMILES | pIC50 |
| --- | --- |
| Cc1noc(-c2ccc(-c3ccc(C4(C(=O)O)CC4)cc3)cc2)c1C(O)CN[C@H]1CCc2ccccc21 (stereo partly drawn) [Compound 1-187, 1-(4′-{4-[1-Hydroxy-2-((S)-indan-1-ylamino)-ethyl]-3-methyl-isoxazol-5-yl}-biphenyl-4-yl)-cyclopropanecarboxylic acid] | > 6.52 |
| Cc1noc(-c2ccc(-c3ccc(C(Cc4ccccc4)C(=O)O)cc3)cc2)c1C(O)CCCc1ccccc1 (centres unmarked) [Compound 1-188, 2-{4′-[4-(1-Hydroxy-4-phenyl-butyl)-3-methyl-isoxazol-5-yl]-biphenyl-4-yl}-3-phenyl-propionic acid] | > 6.52 |
| Cc1noc(-c2ccc(-c3ccc(C4(C(=O)O)CC4)cc3)cc2)c1C(CO)NCc1ccccc1 (centres unmarked) [Compound 1-189, 1-{4′-[4-(1-Benzylamino-2-hydroxy-ethyl)-3-methyl-isoxazol-5-yl]-biphenyl-4-yl}-cyclopropanecarboxylic acid] | > 6.52 |
| Cc1noc(-c2ccc(-c3ccc(C4(C(=O)O)CC4)cc3)cc2)c1C(O)CN (centres unmarked) [Compound 1-190, 1-{4′-[4-(2-Amino-1-hydroxy-ethyl)-3-methyl-isoxazol-5-yl]-biphenyl-4-yl}-cyclopropanecarboxylic acid] | > 6.52 |
| Cc1cnn(Cc2c(C)noc2-c2ccc(-c3ccc(C4(C(=O)O)CC4)cc3)cc2)c1 [Compound 1-194, 1-{4′-[3-Methyl-4-(4-methyl-pyrazol-1-ylmethyl)-isoxazol-5-yl]-biphenyl-4-yl}-cyclopropanecarboxylic acid] | 4.30 to 6.00 |
| Cc1ccc2nc(NCc3c(C)noc3-c3ccc(-c4ccc(C5(C(=O)O)CC5)cc4)cc3)sc2c1 [Compound 1-195, 1-(4′-{3-Methyl-4-[(6-methyl-benzothiazol-2-ylamino)-methyl]-isoxazol-5-yl}-biphenyl-4-yl)-cyclopropanecarboxylic acid] | 4.30 to 6.00 |
| Cc1noc(-c2ccc(-c3ccc(C4(C(=O)O)CC4)cc3)cc2)c1Cn1cc(Br)cn1 [Compound 1-196, 1-{4′-[4-(4-Bromo-pyrazol-1-ylmethyl)-3-methyl-isoxazol-5-yl]-biphenyl-4-yl}-cyclopropanecarboxylic acid] | 4.30 to 6.00 |
| Cc1noc(-c2ccc(-c3ccc(C4(C(=O)O)CC4)cc3)cc2)c1C(=O)C[S+]([O-])Cc1ccccc1 (centres unmarked) [Compound 1-202, 1-{4′-[3-Methyl-4-(2-phenylmethanesulfinyl-acetyl)-isoxazol-5-yl]-biphenyl-4-yl}-cyclopropanecarboxylic acid] | 4.30 to 6.00 |
| Cc1noc(-c2ccc(-c3ccccc3C3(C(=O)O)CC3)cc2)c1C(O)CCCc1ccccc1 (centres unmarked) [Compound 1-203, 1-{4′-[4-(1-Hydroxy-4-phenyl-butyl)-3-methyl-isoxazol-5-yl]-biphenyl-2-yl}-cyclopropanecarboxylic acid] | 4.30 to 6.00 |
| CC(C)=CCCC(C)Nc1c(C)noc1-c1ccc(-c2ccc(C3(C(=O)O)CC3)cc2)cc1 (centres unmarked) [Compound 1-205, 1-{4′-[4-(1,5-Dimethyl-hex-4-enylamino)-3-methyl-isoxazol-5-yl]-biphenyl-4-yl}-cyclopropanecarboxylic acid] | > 6.52 |
| Cc1noc(-c2ccc(-c3ccc(C4(CC(=O)O)CC4)cc3)cc2)c1NC(C)c1ccc2ccccc2c1 (centres unmarked) [Compound 1-206, (1-{4′-[3-Methyl-4-(1-naphthalen-2-yl-ethylamino)-isoxazol-5-yl]-biphenyl-4-yl}-cyclopropyl)-acetic acid] | > 6.52 |
| Cc1noc(-c2ccc(-c3ccc(C4(CC(=O)O)CC4)cc3)cc2)c1C(O)CCCCc1ccc(Cl)c(Cl)c1 (centres unmarked) [Compound 1-208, [1-(4′-{4-[5-(3,4-Dichloro-phenyl)-1-hydroxy-pentyl]-3-methyl-isoxazol-5-yl}-biphenyl-4-yl)-cyclopropyl]-acetic acid] | > 6.52 |
| Cc1noc(-c2ccc(-c3ccc(C4(C(=O)O)CC4)cc3)cc2)c1Nc1ncnc2scc(C)c12 [Compound 1-212, 1-{4′-[3-Methyl-4-(5-methyl-thieno[2,3-d]pyrimidin-4-ylamino)-isoxazol-5-yl]-biphenyl-4-yl}-cyclopropanecarboxylic acid] | 4.30 to 6.00 |
| Cc1noc(-c2ccc(-c3ccc(C4CC4C(=O)O)cc3)cc2)c1[C@@H](O)COCc1ccccc1 (stereo partly drawn) [Compound 1-215, (cis)-2-{4′-[4-((R)-2-Benzyloxy-1-hydroxy-ethyl)-3-methyl-isoxazol-5-yl]-biphenyl-4-yl}-cyclopropanecarboxylic acid] | > 6.52 |
